Data published in paper PMC12350126, “A novel carboxamide bromodomain inhibitor attenuates osteoarthritis via epigenetic repression of NF-κB and MAPK signaling” (Frontiers in Immunology, 2025).

How the values were obtained:
BRD2 (BD1 + BD2) = target: T1, BRD2 (BD1 + BD2) (Homo sapiens, UniProt P25440); assay: TR-FRET assay, BRD2 (BD1 + BD2); conditions: lower signal = stronger binding
T1 construct: kits specific for BRD2 (BD1 + BD2); purchased BPS Bioscience
Experimental: (§1) TR-FRET assays were conducted using kits specific for BRD2 (BD1 + BD2), BRD3 (BD1 + BD2), and BRD4 (BD1 + BD2) obtained from BPS Bioscience (San Diego, CA, USA). Bromodomain ligands were diluted in water, and master mixes were prepared by combining the diluted ligands with 1× BRD Homogeneous Assay Buffer. Thawed BRD proteins were also diluted with the same buffer. For each assay, 1.5 μL of the master mix was dispensed into wells of a microplate (Labcyte, San Jose, CA, USA), followed by the addition of 5 μL of diluted BRD protein to initiate the reaction. Plates were incubated at 20–22°C for 30–60 min. Subsequently, glutathione (GSH) acceptor beads and streptavidin-conjugated donor beads (both from PerkinElmer, Waltham, MA, USA) were diluted in 1× BRD Homogeneous Detection Buffer 1. Next, 10 μL of the acceptor bead solution was added to each well and incubated at 18°C for 30 min, followed by the addition of 10 μL of donor bead solution and a further incubation at 18°C for 15–30 min. Alpha particle counts were measured using an EnVision 2105 multimode plate reader (PerkinElmer).

BRD4 (BD1 + BD2) = target: T2, BRD4 (BD1 + BD2) (Homo sapiens, UniProt O60885); assay: TR-FRET assay, BRD4 (BD1 + BD2); conditions: lower signal = stronger binding
T2 construct: BRD4 (BD1 + BD2); purchased BPS Bioscience
Experimental: as §1

BRD3 BD1 = target: T3, BRD3 BD1 (Homo sapiens, UniProt Q15059); assay: Biosensor binding kinetics assay (Octet), BRD3 BD1
T3 construct: biotinylated BRD2 BD1, BRD2 BD2, BRD3 BD1; biotin (biotinylated protein); made in house; host or cells: Escherichia coli BL21(DE3)
Experimental: (§2) Binding kinetics were assessed using the Octet® R2 system (Sartorius, Göttingen, Germany). Superstreptavidin biosensors were loaded with biotinylated BRD2 BD1, BRD2 BD2, BRD3 BD1, BRD3 BD2, BRD4 BD1, BRD4 BD2, or biotin alone (as a negative control) in PBST buffer (phosphate-buffered saline containing 0.02% Tween 20 and 5% DMSO). The sensors were then dipped into compound solutions for 10 min. To evaluate association kinetics (kon), each sensor was exposed to serial dilutions of the protein for 180 s, followed by dipping them into PBST buffer to assess dissociation kinetics (koff). For control, a separate sensor loaded with the compound was dipped into PBST alone. Competition binding assays were performed by exposing the compound-loaded sensor to mixtures of proteins and test compounds.

BRD4 BD1 = target: T4, BRD4 BD1 (Homo sapiens, UniProt O60885); assay: Biosensor binding kinetics assay (Octet), BRD4 BD1
T4 construct: BRD3 BD2, BRD4 BD1, BRD4 BD2; biotin (biotinylated protein); made in house; host or cells: Escherichia coli BL21(DE3)
Experimental: as §2

BRD4 BD2 = target: T5, BRD4 BD2 (Homo sapiens, UniProt O60885); assay: Biosensor binding kinetics assay (Octet), BRD4 BD2
T5 construct: BRD3 BD2, BRD4 BD1, BRD4 BD2; biotin (biotinylated protein); made in house; host or cells: Escherichia coli BL21(DE3)
Experimental: as §2

[1] = PK analysis after intravenous administration in SD rats; format: in vivo, rat; design: AUC: unit not given here; conditions: for AUC(0-t) / Cmax / half-life: male, rat, plasma
Experimental: SD rats (male, 6 weeks old) were obtained from Orient Bio (Seoul, Korea) and housed under pathogen-free conditions. All animal procedures were conducted in accordance with the guidelines of the Animal Care Facility at Biotoxtech Co., Ltd. (Chungcheongbuk-do, Korea). NCD was administered intravenously (IV) to SD rats at doses of 5, 10, or 20 mg/kg to evaluate its pharmacokinetics. Blood samples were collected from the jugular vein at various time points, mixed with 3.8% (w/v) sodium citrate, and centrifuged at 8,000 × g for 30 min to obtain plasma. The plasma samples were then mixed with acetonitrile (33%, v/v), vortexed for 5 min, and centrifuged at 13,000 × g for 10 min. The concentration of NCD in plasma was determined using high-performance liquid chromatography (HPLC; Shimadzu, Japan) equipped with a UV detector. Pharmacokinetic parameters were calculated using Microsoft Excel ([31]).

[2] = test system: NF-κB and MAPK signaling in mouse articular chondrocytes; assay: IL-1β-induced NF-κB and MAPK signaling in chondrocytes (western blotting, densitometry); format: cell-based; conditions: NCD 10, 50, 100 μM pretreatment 12 h, IL-1β 1 ng/mL 10 min
Experimental: The total protein was extracted from the primary cultured chondrocytes using a lysis buffer, containing 150 mM NaCl, 1% NP-40, 50 mM Tris/HCl (pH 8.0), 0.2% sodium dodecyl sulfate, and 5 mM NaF, supplemented with protease and phosphatase inhibitor mixture (Roche, Madison, WI, USA). Proteins were separated using sodium dodecyl sulfate-polyacrylamide gel electrophoresis, and western blot analysis was performed using the following antibodies: goat anti‐Cox2 (sc‐1745; Santa Cruz Biotechnology, Dallas, TX, USA), mouse anti-Erk1/2 (610408; Becton Dickinson, NJ, USA), mouse anti-IκB [9242; Cell Signaling Technology (CST), MA, USA], mouse anti-p65 (8242; CST), mouse anti-phospho-p65 (3033; CST), mouse anti-p38 (#9212; CST), mouse anti-pp38 (#9215S; CST), mouse anti-c-Jun N-terminal kinase (Jnk) (#9252S; CST), mouse anti-pJnk (#9251S; CST), and mouse anti-pErk (#9101S; CST). Each signal was visualized using a SuperSignal West Dura Kit (Thermo Fisher Scientific, Waltham, MA, USA). Density analysis (AlphaEase FC 4.0; Alpha Innotech, CA, USA) was performed to calculate the relevant band intensities. Extracellular signal-regulated kinase (Erk) was used as the loading control ([28]).
Figure 6 NCD regulates NF-κB and MAPK signaling pathways induced by IL-1β in mouse chondrocytes. Articular chondrocytes were pretreated with NCD at different concentrations (0,10, 50, or 100 μM) for 12 h (n = 3) before being stimulated with IL-1β (1 ng/mL) for 10 min. Levels of phosphorylated Jnk (pJnk), phosphorylated Erk (pErk), and phosphorylated p38 (pp38) proteins were determined using western blotting. (A, B) Protein levels of IκB were detected using western blotting (A) and densitometry (B). JQ-1 (200 μM) was used as a positive control. All data were analyzed using one‐way analysis of variance with Bonferroni’s test and expressed as mean ± standard error of mean (SEM) (n = 3); *P < 0.05, **P < 0.01, ***P < 0.001, and ****P < 0.0001 compared to the control group.

liver, lungs of mice = assay: In vivo organ histology after oral or IA administration

T3 sequence (Q15059 34-140 limits assumed): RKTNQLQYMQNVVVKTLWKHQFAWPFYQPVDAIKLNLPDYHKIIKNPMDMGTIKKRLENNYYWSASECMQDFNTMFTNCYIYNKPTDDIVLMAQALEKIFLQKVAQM
T1 sequence (P25440 65-459 limits assumed): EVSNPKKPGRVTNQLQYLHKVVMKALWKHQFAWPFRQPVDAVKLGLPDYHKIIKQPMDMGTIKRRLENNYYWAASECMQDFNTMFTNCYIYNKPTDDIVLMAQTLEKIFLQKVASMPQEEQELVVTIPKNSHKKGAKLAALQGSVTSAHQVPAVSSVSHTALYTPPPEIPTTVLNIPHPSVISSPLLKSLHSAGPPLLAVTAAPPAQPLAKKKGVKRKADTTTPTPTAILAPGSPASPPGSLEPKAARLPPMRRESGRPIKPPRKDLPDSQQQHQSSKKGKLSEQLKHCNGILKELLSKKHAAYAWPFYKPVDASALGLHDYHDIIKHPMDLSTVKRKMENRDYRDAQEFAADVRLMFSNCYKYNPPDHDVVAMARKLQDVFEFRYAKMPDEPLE

For `CNC(=O)CC1C(=O)NCCN1Cc1ccc(-c2ccccc2-c2cccc3c2CN(C)C3=O)o1` (centres unmarked) [NCD, N-methyl-2-(1-((5-(2-(2-methyl-1-oxoisoindolin-4-yl)phenyl)furan-2-yl)methyl)-3-oxopiperazin-2-yl)acetamide], which TR-FRET value (BRD2 (BD1 + BD2)) is on record?
The TR-FRET value was 96511 RLU.

What about the TR-FRET value (BRD4 (BD1 + BD2)) of the same molecule?
Its TR-FRET value is over 100000 RLU.

And the Kd (BRD3 BD1)?
Its Kd is over 1 µM.

And the Kd (BRD4 BD1)?
The Kd was over 1 µM.

What about the Kd (BRD4 BD2) of the same molecule?
The Kd was over 1 µM.

What about the AUC ([1]; 5 mg/kg) of the same molecule?
The AUC was 631.83.

What about the AUC ([1]; 20 mg/kg) of the same molecule?
Its AUC is 4526.66.

What about the AUC(0-t) ([1]; 5 mg/kg) of the same molecule?
The AUC(0-t) was 632 ng·h/mL.

And the Cmax ([1]; 5 mg/kg)?
The Cmax was 1110 ng/mL.

What about the half-life ([1]; 5 mg/kg) of the same molecule?
Its half-life is 24.6 min.

And the AUC(0-t) ([1]; 10 mg/kg)?
The AUC(0-t) was 1730 ng·h/mL.

And the Cmax ([1]; 10 mg/kg)?
The Cmax was 2560 ng/mL.

What about the half-life ([1]; 10 mg/kg) of the same molecule?
The half-life was 35.4 min.

What about the AUC(0-t) ([1]; 20 mg/kg) of the same molecule?
The AUC(0-t) was 4530 ng·h/mL.

And the Cmax ([1]; 20 mg/kg)?
Its Cmax is 4150 ng/mL.

And the half-life ([1]; 20 mg/kg)?
The half-life was 45.6 min.

And the “Degradation of IκB” value [2]?
Its value is “effectively prevented”.

What about the “Phosphorylation level of ERK” value [2] of the same molecule?
Its value is “markedly reduced”.

And the “Phosphorylation level of JNK” value [2]?
The value was “markedly reduced”.

What about the “Phosphorylation of the p65 subunit” value [2] of the same molecule?
Its value is “significantly suppressed”.

What about the p38 phosphorylation [2] of the same molecule?
The p38 phosphorylation was “remained largely unaffected”.

And the “Cytotoxicity in the liver or lungs (histological analyses)” value (liver, lungs of mice; oral and intra-articular administration)?
Its value is “no apparent cytotoxicity”.

And the “Organ toxicity in vivo” value (liver, lungs of mice; oral or IA routes)?
Its value is “without causing detectable organ toxicity”.
